Entries after “also recorded” stand apart in the source; their conditions may differ. Like-named read-outs stand apart in the source and are kept apart here.
Experiments:
[1] = test system: HPV16 pseudoviruses; experiment: microbe, parasite or virus in culture; format: cell-based; conditions: for activity at 3 µM: Human papillomavirus 16, HEK-293T, 48 h
In short: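 Viability was read by CellTiter Glo luminescence on the same wells used for the SEAP infection read-out, after 48 hrs further incubation.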

[2] = in vitro; conditions: human
[3] = in vitro; conditions: human; remark: listed apart in the source
[4] = in vitro; conditions: human; remark: listed apart in the source
Procedure: (§1) The protocol for the secondary screen was identical to that of the primary screen with the exception that all volumes were scaled up by a factor of four. RL activity was measured using the Renilla Luciferase Assay System (Promega).

[5] = test system: HPV16 pseudovirus; experiment: Luciferase assay: HPV16 pseudovirus with renilla luciferase reporter (HPV16wpA-RL); conditions: renilla luciferase reporter behind HPV16 promoter
Procedure: as §1

[6] = test system: HPV16 pseudovirus; experiment: microbe, parasite or virus in culture; format: cell-based; conditions: HaCaT, HPV16 pseudovirus
Text: FIG. 2. Dose dependence inhibition of HPV16 pseudovirus infection in a human keratinocyte cell line (HaCaT). Graphed are the dose-dependent effects of lead compounds shown in Table 2 on the efficiency of infection by HPV16 pseudovirus scored by measuring luciferase reporter activity (squares) as well as their effects on cell viability (circles).
All but one of these compounds (6 is […]) were repurchased and subjected to a tertiary screen performed in the human keratinocyte cell line, HaCaT, and using HPV16 pseudoviruses encoding a third reporter gene, firefly luciferase, transcribed from a different, E1a, promoter.
The infectivity assay was repeated at least twice and each assay was performed in replicate (n≥3).
At 4 hours prior to exposure of cell to pseudoviruses, compounds were added to plates in 1% DMSO final concentration at the indicated amounts. Four hours later, 10 multiplicity of infection (M.O.I.) units of HPV16 pseudovirus carrying the plasmid LucF was added to the cells. 72 hours later, cells were lysed and luciferase assays performed using the Luciferase Assay System (Promega Cat. #E1501). For infection studies with HPV11 and HPV31 pseudoviruses, 200 virus genome equivalents (vge) of virus per cell were used. Cell viability was assessed in parallel plates by Luminescent Cell Viability Assay (Promega Cat. #G7571).

[7] = test system: HPV16 virus; experiment: Wild type HPV16 infection in 293T cells, early viral gene expression by real time PCR; format: cell-based; conditions: 5 to 10 μM (FIG. 3: 10 μM), 48 hours post infection
Procedure: FIG. 3. Inhibition of infection by HPV 16 virus. Shown is the relative efficiency of infection by HPV16 virus in 293T cells as scored by quantifying early viral transcription using real time PCR for E2 (dark grey bars), E5 (white bars) and E7 (light grey bars) containing mRNAs at 48 hours post-infection in the absence (DMSO—vehicle only, values set at 100%) or the presence of the indicated compound (10 μM concentration). Data points shown are the average of triplicate sample values. The dotted line indicates the normalized value for no drug (set as 100% infection value).
The 21 selected compounds were also tested for their ability to inhibit infection by bonafide HPV16 in 293T cells by measuring early viral gene expression by real time PCR at 48 hours post infection (FIG. 3) after treatment of the cell with 5 to 10 μM of each compound. Consistently with the data of reporter gene assays, HPV early gene expression was inhibited by Compounds 4, 13, 14, 18 and 20. Given the large differences in IC50 and CD50, and the reproducible capacity to inhibit infection by HPV16 pseudovirus and HPV16 virus in different cell types, Compounds 13 and 14 were selected for further analysis.
After 2 day infection, total RNA was isolated from infected cell lysate and treated with DNase I (Promega) as previously. (Pyeon, D. et al., Establishment of human papillomavirus infection requires cell cycle progression, PLos Pathog. 2009 February; 5(2):e1000318. Epub 2009 Feb. 27). Complementary DNA (cDNA) was synthesized from the normalized total RNA with the SuperScript cDNA synthesis kit (Invitrogen). All oligonucleotide primers (0.5 μM) for PCR are previously published (Pyeon D. et al., Production of infectious human papillomavirus independently of viral replication and epithelial cell differentiation, Proc. Nat'l Acad. Sci. USA, 2005 Jun. 28; 102(26):9311-6, Epub 2005 Jun. 15) or listed in Table 2.
Conventional PCR was performed with Taq DNA polymerase (Promega) and the following cycle: denaturation at 94° C. for 5 min, 42 cycles of 94° C. for 30 sec., 55° C. for 1 min., and 72° C. for 1 min., followed by extension at 72° C. for 7 min. Final products were analyzed by 1% agarose gel electrophoresis and ethidium bromide staining. Quantitative RT-PCR was performed using QuantiTect SYBR green PCR kit (Qiagen) with the following cycle: denaturation at 95° C. for 5 min. and 40 cycles of 95° C. for 30 sec., 55° C. for 30 sec., and 72° C. for 30 sec.

[8] = test system: 293T cells; experiment: Primary HTS: cell viability (CellTiter Glo) in parallel on the same wells; conditions: 3 μM HTS standard concentration, 293T cells
[9] = read-out: Infectivity (SEAP Activity), 3 μM HTS standard concentration, 293T cells, 48 hrs
[10] = read-out: Infectivity vs. viability, 3 μM HTS standard concentration, ratio infectivity/viability
[11] = read-out: Primary HTS SEAP vs Viability, Table 2, first pair of columns (c2)
[12] = read-out: Primary HTS SEAP vs Viability, Table 2, second pair of columns (c4)
[13] = Primary HTS Viability % Average

Compound | activity at 3 µM [1, 9] [%] | activity at 3 µM [1, 10] [%] | activity at 3 µM [1, 11] [%] | activity at 3 µM [1, 12] [%] | viability at 52 h, 3 μM [2, 13] [%] | viability at 52 h, 3 μM ([2]; Viability (CelTiter Glow)) [%] | viability at 52 h, 3.3 μM [3] [%] | viability at 52 h, 3.3 μM [4] [%] | Luciferase assay RL % Average [5] [%] | Effect on infection and cytotoxicity, assayed independently [6] | Inhibition of HPV16 early gene expression (E2, E5, E7 mRNAs) [7] | Infectivity (SEAP Activity) ([1]; 3 μM HTS standard concentration, 293T cells, 48 hrs) [%] | Infectivity vs. viability ([1]; 3 μM HTS standard concentration, ratio infectivity/viability) [%] | Viability (CelTiter Glow) [8] [%]
COc1ccc(C(O)(CNCc2ccccc2)c2ccc(Br)cc2)cc1 (stereo not drawn) [Compound 9, 2-(benzylamino)-1-(4-bromophenyl)-1-(4-methoxyphenyl)ethanol] | 29.9 | 28.4 | 16.5 | 43.4 | 101 | 105 | 102 | 99 | 71.67 | – | – | – | – | –
NNC(=O)c1cc(COc2cc(Cl)cc(Cl)c2)on1 [Compound 4, 5-[(3,5-dichlorophenoxy)methyl]-1,2-oxazole-3-carbohydrazide] | 22.6 | 25 | 18.3 | 26.9 | 94.5 | 90.4 | – | – | 68.26 | inhibit infection but also to cause cytotoxicity at similar doses | reproducible and significant inhibition; also recorded: inhibited | – | – | –
CCOc1ccc(C(=O)Nc2ccc3oc(-c4ccccc4Br)nc3c2)cc1 [Compound 15, N-[2-(2-bromophenyl)-1,3-benzoxazol-5-yl]-4-ethoxybenzamide] | 26.4 | 28.1 | 11.1 | 41.6 | 89.5 | 93.8 | 95.7 | 97.7 | 102.39 | – | – | – | – | –
Cc1ccc(C2Nc3ccccc3NC3=C2C(=O)CC(c2ccccc2)C3)s1 (stereo not drawn) [Compound 22, 11-(5-methyl-2-thienyl)-3-phenyl-2,3,4,5,10,11-hexahydro-1H-dibenzo[b,e][1,4]diazepin-1-one] | 44.1 | 41.9 | 45.2 | 43 | – | 105 | 93.7 | 97.3 | 44.37 | – | – | – | – | –
FC(F)(F)c1cnc2c(c1)nc(S)n2-c1ccc(Cl)cc1 [Compound 20, 3-(4-chlorophenyl)-6-(trifluoromethyl)-3H-imidazo[4,5-b]pyridine-2-thiol] | 21.4 | 21.6 | 20.9 | 21.9 | 95.8 | 99.1 | – | – | 109.22 | – | reproducible and significant inhibition; also recorded: inhibited | – | – | –
COC(=O)C1=C(C)NC2=C(C(=O)c3ccccc32)C1c1cc2c(cc1Br)OCO2 (stereo not drawn) [Compound 11, methyl 4-(6-bromo-1,3-benzodioxol-5-yl)-2-methyl-5-oxo-4,5-dihydro-1H-indeno[1,2-b]pyridine-3-carboxylate] | 19.1 | 14.7 | 17.7 | 20.4 | – | 130 | 97.3 | 95.7 | 95.56 | – | – | – | – | –
-[(3-fluorophenypamino]-3-methylpyrido[1,2-a]benzimidazole-4-carbonitrile [Compound 5873417] | – | – | – | – | – | – | – | – | – | – | – | 46.16 | 45.53 | 101.39
O=C1NC(=S)SC1=Cc1cc(Br)ccc1OCc1ccccc1Cl [Compound 18, 5-{5-bromo-2-[(2-chlorobenzyl)oxy]benzylidene}-2-thioxo-1,3-thiazolidin-4-one] | 24.2 | 25.4 | 27.2 | 21.2 | 87.8 | 95.4 | – | – | 112.63 | – | reproducible and significant inhibition; also recorded: inhibited | – | – | –
Cc1cc(O)n2c(nc3ccccc32)c1C(=O)O [Compound 2, 1-hydroxy-3-methylpyrido[1,2-a]benzimidazole-4-carboxylic acid] | 19.7 | 19.6 | 13.5 | 25.9 | – | 101 | – | – | 75.09 | – | – | – | – | –
Cc1nc2ccccn2c1C(=O)NC(C)c1ccccc1 (stereo not drawn) [Compound 3, 2-methyl-N-(1-phenylethyl)imidazo[1,2-a]pyridine-3-carboxamide] | 20.8 | 20.3 | 18.7 | 23 | 105 | 103 | – | – | 71.67 | – | – | – | – | –

Source: patent US9949980B2, “Drugs to prevent HPV infection” (Wisconsin Alumni Research Foundation, priority 2008, dated 2018)
